In the supplement of paper PMC10307832:

Legend:
Assay in all cases: relative viability (nuclei count vs DMSO), 5 days (fraction); higher = more cells survive
[1] = compound: COc1cc2c(Oc3ccc4[nH]c(C)cc4c3F)ncnc2cc1OCCCN1CCCC1 [Cediranib] + CS(=O)(=O)N1CCN(Cc2cc3nc(-c4cccc5[nH]ncc45)nc(N4CCOCC4)c3s2)CC1 [Pictilisib] (partner 1 µM)
Outline: (§1)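 Lung cancer cell lines in 1536-well plates were dosed by pin tool the day after seeding, either with one drug alone or with a fixed anchor-drug dose plus five library-drug doses (not always all listed) in √10 steps. After 5 days, cells were fixed and their nuclei stained in one step (final 0.05% Triton X-100, 1% formaldehyde, 1 ug/ml Hoechst), then counted on 4× images. Relative viability is the nuclei count in treated wells divided by that in vehicle wells. Values are medians of duplicate plates.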

[2] = compound: Nc1ncn([C@H]2C[C@H](O)[C@@H](CO)O2)c(=O)n1 [Decitabine] + COc1cccc2cc(-c3nc([C@H]4CC[C@H](C(=O)O)CC4)n4ncnc(N)c34)[nH]c12 [OSI-027] (partner 0.5 µM)
Outline: as §1

[3] = compound: Nc1ncn([C@H]2C[C@H](O)[C@@H](CO)O2)c(=O)n1 [Decitabine] + CS(=O)(=O)N1CCN(Cc2cc3nc(-c4cccc5[nH]ncc45)nc(N4CCOCC4)c3s2)CC1 [Pictilisib] (partner 1 µM)
Outline: as §1

[4] = compound: Nc1ncn([C@H]2C[C@H](O)[C@@H](CO)O2)c(=O)n1 [Decitabine] + N=C(N)NC(=N)NCCc1ccccc1 [Phenformin] (partner 250 µM)
Outline: as §1

Row | Cell Line | relative viability ([1]; first compound 0.04 µM) | relative viability ([1]; first compound 0.1265 µM) | relative viability ([1]; first compound 0.4 µM) | relative viability ([1]; first compound 1.265 µM) | relative viability ([1]; first compound 4 µM) | relative viability ([2]; first compound 0.04 µM) | relative viability ([2]; first compound 0.1265 µM) | relative viability ([2]; first compound 0.4 µM) | relative viability ([2]; first compound 1.265 µM) | relative viability ([2]; first compound 4 µM) | relative viability ([3]; first compound 0.04 µM) | relative viability ([3]; first compound 0.1265 µM) | relative viability ([3]; first compound 0.4 µM) | relative viability ([3]; first compound 1.265 µM) | relative viability ([3]; first compound 4 µM) | relative viability ([4]; first compound 0.04 µM) | relative viability ([4]; first compound 0.1265 µM) | relative viability ([4]; first compound 0.4 µM) | relative viability ([4]; first compound 1.265 µM) | relative viability ([4]; first compound 4 µM)
1 | NCI-H460 | 0.466 | 0.7 | 0.355 | 0.33 | 0.397 | 0.603 | 0.848 | 0.598 | 0.308 | 0.215 | 0.389 | 0.549 | 0.524 | 0.373 | 0.334 | 0.473 | 0.473 | 0.472 | 0.223 | 0.157
2 | NCI-H520 | 0.312 |  | 0.246 | 0.221 | 0.22 | 0.309 | 0.242 | 0.234 | 0.215 | 0.21 | 0.315 | 0.271 | 0.241 | 0.222 | 0.198 | 0.42 | 0.347 | 0.37 | 0.328 | 0.288
3 | NCI-H596 | 0.458 | 0.493 | 0.348 | 0.37 | 0.241 | 0.606 | 0.793 |  | 0.581 | 0.477 | 0.38 | 0.416 | 0.304 | 0.358 | 0.633 | 0.815 | 0.666 |  | 0.582 | 0.53
4 | NCI-H647 | 0.429 |  | 0.392 | 0.324 | 0.385 | 0.648 | 0.549 | 0.403 | 0.152 | 0.201 | 0.504 | 0.566 | 0.42 | 0.191 | 0.214 | 0.372 | 0.399 | 0.25 | 0.101 | 0.172
5 | NCI-H650 | 0.848 | 0.956 | 0.836 | 0.915 | 1.04 | 0.462 | 0.454 | 0.306 | 0.291 | 0.276 | 0.81 | 0.779 | 0.574 | 0.443 | 0.33 | 0.432 | 0.408 | 0.321 | 0.346 | 0.291
6 | NCI-H661 | 0.428 | 0.588 | 0.419 | 0.318 | 0.366 | 0.55 | 0.628 | 0.474 | 0.374 | 0.346 | 0.346 | 0.344 | 0.372 | 0.288 | 0.242 | 0.289 | 0.282 | 0.267 | 0.281 | 0.277
7 | NCI-H727 | 0.515 | 0.169 | 0.289 | 0.325 | 0.3 | 0.485 | 0.65 | 0.477 | 0.57 | 0.426 | 0.272 | 0.353 | 0.316 | 0.418 | 0.257 | 0.549 | 0.503 | 0.367 | 0.423 | 0.362
8 | NCI-H838 | 0.542 | 0.46 | 0.395 | 0.275 | 0.558 | 0.359 | 0.324 | 0.279 | 0.273 | 0.29 | 0.415 | 0.357 | 0.308 | 0.24 | 0.226 | 0.398 | 0.409 | 0.247 | 0.266 | 0.242
9 | NCI-H1355 | 0.392 | 0.273 | 0.41 | 0.263 | 0.476 | 0.352 | 0.398 | 0.289 | 0.288 | 0.267 | 0.529 | 0.44 | 0.293 | 0.254 | 0.23 | 0.432 | 0.385 | 0.338 | 0.277 | 0.323
